Tests used:
[1] = In vitro cytotoxicity (WST-1), human hepatocellular carcinoma; type: cell-based; conditions: Hep G2 human hepatocellular carcinoma cells, 24 h exposure
Method: Cells were passaged every 3 days. Assays were performed in 96 well plates in duplicate. Wells were seeded with 50 000 cells.

[2] = tested on: Giardia BAH2c2 trophozoites; assay: Electron microscopy (TEM, SEM) of trophozoites; type: cell-based, Giardia duodenalis
Method: To determine any effects robenidine has on the ultrastructure of Giardia trophozoites, transmission electron microscopy (TEM) was performed. Giardia BAH2c2 trophozoites were exposed to 3 X IC50 of robenidine or metronidazole for 1 h and placed on ice for 40 min to detach trophozoites then washed twice with PBS (900×g, 10 min 4 °C) and fixed with a combination of glutaraldehyde and formaldehyde overnight. Cells were washed with PBS +4% sucrose before fixation with osmium tetroxide for 1 h. Samples were dehydrated through a graded ethanol series (70–100%) followed by suspension in propylene oxide for ten minutes. Samples were centrifuged and suspended in 1:1 mixture of propylene oxide and epoxy resin for an hour before centrifugation. Following overnight suspension in 100% epoxy resin samples were resuspended in fresh resin and polymerized at 70 °C for 24 h. After sectioning samples were stained with uranyl acetate and lead citrate. Sections were imaged with a FEI tecnai G2 Spirit Transmission Electron microscope (Adelaide Microscopy, University of Adelaide).
To determine the effect that robenidine and metronidazole has on the cell surface of the Giardia trophozoites, scanning electron microscopy (SEM) was performed as follows. Giardia BAH2c2 trophozoites were prepared as for TEM, however they were exposed to compounds for 2 or 4 h. […]

[3] = tested on: Giardia duodenalis trophozoites; assay: Modified adherence assay; type: cell-based; conditions: 4 μM, 5 h exposure
Method: A second screening method, based on counting adherent trophozoites, was developed and used to validate the primary screen method, modified from earlier adherence assay protocols ([Crouch et al., 1986]). The assay was prepared in 24 well plates with plastic coverslips placed in the bottom. Trophozoites were prepared as above by placing on ice and ∼5 × 10^5 cells/mL were added to each well. Drugs prepared in DMSO were added at the required concentration, with the DMSO concentration never exceeding 1%. Assay plates were incubated for 5 h at 37 °C under anaerobic conditions, the media removed and cells adhering to the coverslips were fixed with glutaraldehyde or methanol. Once the coverslips were dry, cells were stained with a Romanowsky stain variant (Rapid stain), fixed to a glass slide and imaged at 10x or 100x magnification. Images (10x magnification) were processed with DotCount v1.2 software (http://reuter.mit.edu/, 2008–2012 ^© Martin Reuter) to count the number of cells present and data analysed using GraphPad Prism version 6.00 for Windows, GraphPad Software, La Jolla California USA, www.graphpad.com. Images (100x magnification) were assessed for obvious morphological changes.
The results for the in vitro drug efficacy studies were analysed using GraphPad Prism version 6.00 for Windows, GraphPad Software, La Jolla California USA, www.graphpad.com. For the resazurin reduction assay the mean and standard error of the mean were determined with each assay completed in triplicate. The IC50 was calculated using the log (inhibitor) vs. normalised response – variable slope function in Graphpad Prism. For the adherence assay mean and standard error of the mean were calculated and data analysed using an unpaired t-test, relative to untreated control.
Fig. 3 Inhibition of adherence of Giardia duodenalis by metronidazole (Mz), robenidine, NCL 062 and NCL 099. Cells were exposed to the compounds for 5 h before staining. Stained cells were imaged at 10x magnification and counted using DotCount™ software. Each assay was completed in triplicate and 5 images taken per sample. Top. Number of adherent trophozoites after exposure to 4 μM of each compound for 5 h; Bottom. An example of the Dotcount software identifying trophozoites at higher magnification. Left: stained trophozoites, Right: highlighted trophozoites identified by the Dotcount software. Each highlighted cell is counted individually. Error ± SEM. * p-value <0.05, ** p-value <0.0001.

N=C(N/N=C/c1ccc(Cl)cc1)N/N=C/c1ccc(Cl)cc1 [Robenidine, robenidine]
GI50 at 24 h [1]: 25.5 µM | Ultrastructural changes by TEM ([2]; 3 x IC50, 1 h exposure): extreme membrane blebbing | Cell surface changes by SEM ([2]; 3 x IC50, 2 h exposure): extreme membrane blebbing | Effect on adherence of trophozoites [3]: complete inhibition of adherence

Reference: paper PMC6479099, “Aminoguanidines: New leads for treatment of Giardia duodenalis infection” (International Journal for Parasitology: Drugs and Drug …, 2019)
